Experimental data from US9789096B2, “Methods and compositions for selective and targeted cancer therapy” (Board of Regents of the University of Texas System, priority 2013, dated 2017).
Where two headings read alike, the source gives them in different places.

Tests used:
[1] = system: 12 lung adenocarcinoma cell lines; test: Proliferation of the panel of 12 lung adenocarcinoma cell lines; assay type: cell-based, human; details: Homo sapiens; read-out: IC50 against 10 other cell lines, including the normal line
Method: (§1) FIG. 6A. […] Cell viability is plotted vs. compound concentration. Compound was added to cells plated at 15% confluence in 96-well plates in RPMI-1640 media supplemented with 5% Fetal Bovine Serum and 2 mM L-Glutamine. After 4 days of incubation, ATP levels were measured using Cell Titer Glo (Promega). Data are presented as the average of 2 replicates ±SEM.
To discover selective agents, twelve cell lines of diverse genotype were selected for analysis. 108 lung cancer cell lines were initially clustered into six groups based on mRNA expression of genes that underwent frequent copy number variation. Two cell lines were chosen from each group for high throughput chemical screening. All 12 of the chosen cell lines were derived from lung adenocarcinomas, eliminating both lineage and histology as confounders. None of the cell lines chosen for screening harbored EGFR mutations or ALK rearrangements, so that the final set represented a collection of diverse lung adenocarcinoma genotypes for which there are no targeted therapy.
The proliferative impact of each compound in the library was assayed by analyzing total ATP four days after administration of 2.5 μM in a single well. This first pass yielded 15,843 toxins defined as a compound where ATP levels were […] three standard deviations below the mean for at least one cell line. For each of these putative toxins, the average effect on proliferation was retested on each cancer cell line and a non-cancerous immortalized HBEC line (control), yielding a confirmation dataset.
In addition, N-acyl benzothiazoles was also discovered, such as 4-amino-N-(6-methoxybenzo[d]thiazol-2-yl)benzamide (ATB). We compared the proliferation of 12 lung adenocarcinoma cell lines and three HBEC lines after the addition of ATB.
We subsequently synthesized various derivatives that are both selective and potent (Tables 1 and 2). One leading candidate is a benzothiazole, SW202857, that inhibits proliferation in three of 12 adenocarcinoma cell lines at concentrations less than 10 nM.

[2] = system: H2122; test: Cell viability dose-response, H2122; assay type: cell-based, human; details: Homo sapiens
Procedure, shortened: (§2)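 Viability read as total ATP (Cell Titer Glo) following 4 days' compound exposure, with IC50 derived from dose-response curves. Duplicate 12-point series, top concentration 50 micromolar with 3-fold steps, on cells seeded at 15% confluence in RPMI-1640, 5% FBS, 2 mM L-glutamine.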

[3] = system: HBEC30KT; test: Cell viability (ATP, Cell Titer Glo, 4 days), HBEC30KT; assay type: cell-based, human
[4] = system: H2009; test: Cell viability dose-response, H2009; assay type: cell-based, human; details: Homo sapiens, NCI-H2009
Procedure, shortened: (§3)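 Read-out is total cellular ATP, measured with CellTiter-Glo after four days of compound treatment. Cells start at 15% confluence in RPMI-1640 containing 5% FBS and 2 mM L-glutamine. Each point averages two replicates (±SEM).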

[5] = system: HCC44; test: Cell viability dose-response, HCC44; assay type: cell-based, human; details: Homo sapiens
Procedure, shortened: as §3

[6] = system: H460; test: Cell viability dose-response, H460; assay type: cell-based; details: Homo sapiens, NCI-H460
Method: as §1
(§4) Selectivity may be measured by the half maximal inhibitory concentration (IC50), which, as used herein, is a measure of the effectiveness of a compound in killing cells. This quantitative measure indicates how much of a particular compound is needed to kill a particular cell population by half (e.g., as indicated by the amount of ATP). […] The IC50 can be determined by constructing a dose-response curve. The lower the IC50, the higher the potency, and the greater the difference between IC50 values for different cell lines (e.g., sensitive lines vs. insensitive lines, and sensitive lines vs. normal lines) the greater the selectivity. […]
(§5) With this information, we synthesized and tested a series of small molecules derived in conception from the oxalamide and chromone scaffold including N-acyl ureas, as shown in Tables 6-8. Each compound was tested in a 12-point dose-response study starting at 50 micromolar and decreasing in 3-fold increments to sub-nanomolar concentrations, in duplicate. Additionally, one or more additional cell line was tested in the same way.

[7] = system: H1395; test: Cell viability dose-response, H1395; assay type: cell-based; details: Homo sapiens, NCI-H1395
Method: as §1, §4, §5

[8] = system: HCC366; test: Cell viability dose-response, HCC366; assay type: cell-based; details: Homo sapiens
Method: as §1, §4, §5

[9] = system: HCC95; test: Cell viability dose-response, HCC95; assay type: cell-based; details: Homo sapiens
Method: as §1, §4, §5

[10] = system: H1819; test: Cell viability dose-response, H1819; assay type: cell-based, human; details: Homo sapiens
Procedure, shortened: as §2

[11] = system: H2073; test: Cell viability dose-response, H2073; assay type: cell-based, human; details: Homo sapiens
Procedure, shortened: as §3

[12] = system: H1993; test: Cell viability dose-response, H1993; assay type: cell-based; details: Homo sapiens, NCI-H1993
Method: as §1, §4, §5

[13] = system: H1155; test: Cell viability dose-response, H1155; assay type: cell-based; details: Homo sapiens, NCI-H1155
Method: as §1, §4, §5

[14] = system: HCC4017; test: Cell viability dose-response, HCC4017; assay type: cell-based, human
Method: as §1, §4, §5

[15] = Homo sapiens, Tables 3 and 4, read-out: HBEC30KT IC50
[16] = Tables 3 and 4, read-out: IC50 (uM) vs indicated non-small cell lung cancer cell line H2009
[17] = HCC44, Tables 3 and 4, read-out: IC50 (uM) vs indicated non-small cell lung cancer cell line HCC44
[18] = Tables 3 and 4, read-out: IC50 (uM) vs indicated non-small cell lung cancer cell line H460
[19] = Tables 3 and 4, read-out: IC50 (uM) vs indicated non-small cell lung cancer cell line H1395
[20] = Tables 3 and 4, read-out: IC50 (uM) vs indicated non-small cell lung cancer cell line HCC366
[21] = Tables 3 and 4, read-out: IC50 (uM) vs indicated non-small cell lung cancer cell line HCC95
[22] = NCI-H1819, Tables 3 and 4, read-out: IC50 (uM) vs indicated non-small cell lung cancer cell line H1819
[23] = NCI-H2073, Tables 3 and 4, read-out: IC50 (uM) vs indicated non-small cell lung cancer cell line H2073
[24] = Tables 3 and 4, read-out: IC50 (uM) vs indicated non-small cell lung cancer cell line H1993
[25] = Tables 3 and 4, read-out: IC50 (uM) vs indicated non-small cell lung cancer cell line H1155
[26] = Homo sapiens, HCC4017, Tables 3 and 4, read-out: IC50 (uM) vs indicated non-small cell lung cancer cell line HCC4017
[27] = NCI-H2122, Tables 3 and 4, read-out: IC50 (uM) vs indicated non-small cell lung cancer cell line H2122

Compound | IC50 [3, 15] [µM] | IC50 [4, 16] [µM] | IC50 [5, 17] [µM] | IC50 [6, 18] [µM] | IC50 [7, 19] [µM] | IC50 [8, 20] [µM] | IC50 [9, 21] [µM] | IC50 [10, 22] [µM] | IC50 [11, 23] [µM] | IC50 [12, 24] [µM] | IC50 [13, 25] [µM] | IC50 [14, 26] [µM] | IC50 [2, 27] [µM] | also measured
COc1ccc2nc(NC(=O)c3ccc(N)cc3)sc2c1 [ATB, 4-amino-N-(6-methoxybenzo[d]thiazol-2-yl)benzamide] |  |  |  |  |  |  |  |  |  |  |  |  |  | IC50 [1]: > 1 µM; IC50 ([2]; NCI-H2122, read-out: IC50 against the most sensitive cell line (H2122)): 0.048 µM
COc1ccc2nc(NC(=O)c3ccc(N)cc3)sc2c1 [SW001286] | 130 | 22 | 3 | 0.4 | 35 | 35 | 2 | 24 | 0.3 | 27 | 25 | 35 | 0.048 | IC50 ([2]; NCI-H2122, Table 9, competitor, read-out: IC50 to H2122 cells): 0.04 µM
O=C(Nc1nc2ccccc2s1)c1cccnc1 [SW006981] | 272 | 325 | 63.7 | 180 | 51 | 85 | 110 | 50 | 12.5 | 21.5 | 95 | 76 | 0.26 | 
O=C(Nc1cccc(NC(=O)c2sc3ccccc3c2Cl)c1)c1cccc(Cl)c1 [SW023441] |  | 9.4 | 32 | 48 | 10.5 | 23 | 14 | 16.4 | 6.2 | 11 | 29 |  | 0.39 | IC50 ([3]; Tables 3 and 4, read-out: HBEC30KT IC50): 30 µM; IC50 ([14]; Tables 3 and 4, read-out: IC50 (uM) vs indicated non-small cell lung cancer cell line HCC4017): 18 µM
O=C(c1ccccc1)c1ccc(NC(=O)c2sc3ccccc3c2Cl)cc1 [SW025780] | 51 | 60 | 64 | 46 | 99 | 248 | 7.7 | 27 | 0.08 | 31 | 33 | 56 | 0.007 | 
COc1ccc(CCNC(=O)C(=O)Nc2ccc(C)c(C)c2)cc1 [SW027949] |  |  |  |  |  |  |  |  |  |  |  |  |  | IC50 ([3]; Homo sapiens, 12-point dose-response starting at 50 micromolar, 3-fold increments, in duplicate, read-out: toxicity data, HBEC30KT): 41.5 µM; IC50 ([4]; 12-point dose-response starting at 50 micromolar, 3-fold increments, in duplicate, read-out: toxicity data, H2009): ≥ 50 µM; IC50 ([5]; HCC44, 12-point dose-response starting at 50 micromolar, 3-fold increments, in duplicate, read-out: toxicity data, HCC44): ≥ 50 µM; IC50 ([6]; 12-point dose-response starting at 50 micromolar, 3-fold increments, in duplicate, read-out: toxicity data, H460): 1.31 µM; IC50 ([7]; 12-point dose-response starting at 50 micromolar, 3-fold increments, in duplicate, read-out: toxicity data, H1395): 50 µM; IC50 ([8]; 12-point dose-response starting at 50 micromolar, 3-fold increments, in duplicate, read-out: toxicity data, HCC366): 50 µM; IC50 ([9]; 12-point dose-response starting at 50 micromolar, 3-fold increments, in duplicate, read-out: toxicity data, HCC95): 0.17 µM; IC50 ([10]; NCI-H1819, 12-point dose-response starting at 50 micromolar, 3-fold increments, in duplicate, read-out: toxicity data, H1819): ≥ 50 µM; IC50 ([11]; NCI-H2073, 12-point dose-response starting at 50 micromolar, 3-fold increments, in duplicate, read-out: toxicity data, H2073): ≥ 50 µM; IC50 ([12]; 12-point dose-response starting at 50 micromolar, 3-fold increments, in duplicate, read-out: toxicity data, H1993): 50 µM; IC50 ([13]; 12-point dose-response starting at 50 micromolar, 3-fold increments, in duplicate, read-out: toxicity data, H1155): 50 µM; IC50 ([14]; Homo sapiens, HCC4017, 12-point dose-response starting at 50 micromolar, 3-fold increments, in duplicate, read-out: toxicity data, HCC4017): ≥ 50 µM; IC50 ([2]; NCI-H2122, 12-point dose-response starting at 50 micromolar, 3-fold increments, in duplicate, read-out: toxicity data, H2122): 0.7 µM
